Measured values reported in patent US9422254B2, “Methoxyacrylate-based fungicide and methods for preparing and using the same” (priority 2008, dated 2016).

Key:
Assay type in all cases: cell-based
Ustilaginoidea virens = test: microbe, parasite or virus in culture
Aspergillus = test: In vitro inhibition, pathogens from tropical plants
Experimental: (§1) 5 wt % formulation of the active compound of Formula (I) was prepared into a solution (300 mg/L). To a sterilized Erlenmeyer flask, 2 mL of the solution and 18 mL of PDA culture medium (50° C.) were added. The mixture was shaken uniformly and dumped into two dishes whose diameter was 9 cm to yield two toxic PDA culture mediums having a concentration of 30 mg/L. Various cultured pathogens were punched at the edge of colony by a puncher having a diameter of 5 mm respectively, and the obtained pieces were transferred to the center of the toxic PDA culture medium by an inoculating needle and cultured in an incubator at 25° C. Repeat the above steps. According to the growth status of CK colony, the colony diameter of pathogens was measured by crossing method with a caliper and thereby a corrected inhibition percentage was calculated.
(§2) For each colony, diameter was measured twice by crossing method and the average was practicable. The colony growth inhibition rate was calculated as follows: Colony growth inhibition rate %=(diameter of CK colony−diameter of target colony)×100/diameter of CK colony
(§3) Following the above method, as targets 17 pathogens originated from tropical plants were tested. The pathogens were Rhizopus sp., Aspergillus, Colletotrichum gloeosporioides Penz, Banana Fusarium wilt, Colletouichum coccodes, Hughas, B. heveas, Cucumber mosaic virusstrain banana, Banana Sigatoka Leaf Spot Disease, Colletotrichum gloeosporioides, Colletotrichum musae (Berk & Curt) Arx, Botryodiplodia theobromae, Cladosporium cucumerinum Ellis et Arthur, Periconia hevenae, Colletotrichum gloeosporioides, B. cinerea, Diplodia natalensis, and Curvularia.

B. cinerea = test: as above; details: Botrytis cinerea
Experimental: as §1, §2, §3

B. heveas = test: as above
Experimental: as §1, §2, §3

Banana Fusarium wilt = test: as above
Experimental: as §1, §2, §3

[1] = test system: Banana Sigatoka Leaf Spot Disease; test: as above
Experimental: as §1, §2, §3

[2] = test system: Botryodiplodia theobromae; test: as above; details: Lasiodiplodia theobromae
Experimental: as §1, §2, §3

[3] = test system: Cladosporium cucumerinum Ellis et Arthur; test: as above
Experimental: as §1, §2, §3

[4] = test system: Colletotrichum gloeosporioides (first entry, r49); test: as above
Experimental: as §1, §2, §3

[5] = test system: Colletotrichum gloeosporioides (second entry, r74); test: as above
Experimental: as §1, §2, §3

[6] = 0.1 mg/L, read-out: Inhibition rate (%)
[7] = 1 mg/L, read-out: Inhibition rate (%)
[8] = 5 mg/L, read-out: Inhibition rate (%)
[9] = 10 mg/L, read-out: Inhibition rate (%)
[10] = 25 mg/L, read-out: Inhibition rate (%)
[11] = 50 mg/L, read-out: Inhibition rate (%)
[12] = 0.5 mg/L, read-out: Inhibition rate (%)
[13] = 20 mg/L, read-out: Inhibition rate (%)

CO/C=C(/C(=O)OC)c1ccccc1CSc1nc2cc(OC)ccc2s1 [Compound of Formula (I), (E)-methyl 3-methoxy-2-(2-((5-methoxy-benzothiazol-2-ylthio)methyl)phenyl)acrylate]
in vitro effect (Ustilaginoidea virens): particularly effective
inhibition at 0.3 µg/mL (Ustilaginoidea virens; Ustilaginoidea virens, 0.3 mg/L, read-out: Inhibition rate (%)): 74.8%
inhibition at 3 µg/mL (Ustilaginoidea virens; Ustilaginoidea virens, 3 mg/L, read-out: Inhibition rate (%)): 100%
inhibition at 30 µg/mL (Ustilaginoidea virens; Ustilaginoidea virens, 30 mg/L, read-out: Inhibition rate (%)): 100%
EC50 (Aspergillus): 5.03 µg/mL
inhibition at 0.1 µg/mL (Aspergillus; [6]): 10.6%
inhibition at 1 µg/mL (Aspergillus; [7]): 27.4%
inhibition at 5 µg/mL (Aspergillus; [8]): 47.8%
inhibition at 10 µg/mL (Aspergillus; [9]): 58.4%
inhibition at 25 µg/mL (Aspergillus; [10]): 71.4%
inhibition at 50 µg/mL (Aspergillus; [11]): 86.1%
EC50 (B. cinerea): 1 µg/mL
inhibition at 0.1 µg/mL (B. cinerea; [6]): 12.8%
inhibition at 0.5 µg/mL (B. cinerea; [12]): 35.1%
inhibition at 1 µg/mL (B. cinerea; [7]): 54.5%
inhibition at 5 µg/mL (B. cinerea; [8]): 73.3%
inhibition at 10 µg/mL (B. cinerea; [9]): 88.1%
EC50 (B. heveas): 1.99 µg/mL
inhibition at 0.1 µg/mL (B. heveas; [6]): 9.09%
inhibition at 1 µg/mL (B. heveas; [7]): 43.9%
inhibition at 5 µg/mL (B. heveas; [8]): 61.4%
inhibition at 10 µg/mL (B. heveas; [9]): 70.5%
inhibition at 15 µg/mL (B. heveas; 15 mg/L, read-out: Inhibition rate (%)): 81.4%
EC50 (Banana Fusarium wilt): 9.22 µg/mL
inhibition at 1 µg/mL (Banana Fusarium wilt; [7]): 13.5%
inhibition at 5 µg/mL (Banana Fusarium wilt; [8]): 30.2%
inhibition at 10 µg/mL (Banana Fusarium wilt; [9]): 60.5%
inhibition at 25 µg/mL (Banana Fusarium wilt; [10]): 67.6%
inhibition at 50 µg/mL (Banana Fusarium wilt; [11]): 80.4%
EC50 [1]: 1.5 µg/mL
inhibition at 0.1 µg/mL [1, 6]: 17.2%
inhibition at 1 µg/mL [1, 7]: 43.5%
inhibition at 5 µg/mL [1, 8]: 63.7%
inhibition at 10 µg/mL [1, 9]: 77.9%
inhibition at 20 µg/mL [1, 13]: 85.8%
EC50 [2]: 3.7 µg/mL
inhibition at 0.5 µg/mL [2, 12]: 14.6%
inhibition at 1 µg/mL [2, 7]: 31.7%
inhibition at 5 µg/mL [2, 8]: 51.6%
inhibition at 10 µg/mL [2, 9]: 65.8%
inhibition at 20 µg/mL [2, 13]: 84%
EC50 [3]: 4.84 µg/mL
inhibition at 1 µg/mL [3, 7]: 6.77%
inhibition at 2.5 µg/mL ([3]; 2.5 mg/L, read-out: Inhibition rate (%)): 28.3%
inhibition at 5 µg/mL [3, 8]: 55%
inhibition at 10 µg/mL [3, 9]: 72.1%
inhibition at 20 µg/mL [3, 13]: 84.9%
EC50 [4]: 1.97 µg/mL
inhibition at 0.1 µg/mL [4, 6]: 18.2%
inhibition at 1 µg/mL [4, 7]: 42.4%
inhibition at 5 µg/mL [4, 8]: 55.9%
inhibition at 10 µg/mL [4, 9]: 69.4%
inhibition at 20 µg/mL [4, 13]: 83.2%
EC50 [5]: 6.92 µg/mL
